Test results: PMC11232401, “Characterization of antimalarial activity of artemisinin-based hybrid drugs” (Antimicrobial Agents and Chemotherapy, 2024)

Test: Quantification of hybrid 1 in uRBC-derived supernatants by HPLC and fluorescence
Format: in vitro ADME, human
Experimental: Each well of 96-well plates was filled with 125 µL drug (1000 nM) and 125 µL uninfected red blood cells (uRBC), which were mixed to obtain a final drug concentration of 500 nM and 2.5% or 1.0% hematocrit. The plates were incubated at 37°C in the standard gas mixture. After each time point (10 min, 6 h, and 24 h), supernatants were carefully harvested and stored at −80°C until use. Untreated uRBC incubated at the same times were used as negative controls, and DHA and AQ were employed as standard drugs. Next, supernatants were diluted in a complete medium in six different dilutions and were aliquoted in new plates. The antimalarial activity of these supernatants and freshly dissolved drugs was determined in an asynchronous parasite culture of P. falciparum (3D7, D10, and W2 strains) for 72 h using the same method described above, and parasite viability was assessed by the pLDH ([38]) and SYBR Green I ([41]) methods. […] Decay in drug concentration was estimated by using the normalized slope values calculated from linear regression fits using the slope values of a standard curve as reference. […]
To test the association between the antimalarial activity of hybrid 1 supernatants and chemical stability, the concentration of hybrid 1 in these supernatants was quantified by high-performance liquid chromatography (HPLC) and fluorescence in a microplate reader. The concentration of hybrid 1 remained constant under incubation with PBS over the analyzed time (Fig. 3E; Fig. S1). […] Moreover, we defined the slopes calculated from linear regression fits to accurately reflect the effective decay in drug concentration because peroxides could covalently bind to proteins present in the supernatant. […]
Figure S1: Quantification of hybrid LH70 (1) by fluorescence and HPLC in the uRBC-derived supernatants. […] The drug was quantified in the supernatant of the cell culture after the second and third steps of medium replacement and washing out. […] RFU = relative fluorescence units.

COCCOCCOCCOCCn1c(-c2ccc(-n3cc(-c4ccc(OC5OC6OC7(C)CCC8C(C)CCC(C5C)C68OO7)cc4)nn3)cc2)nc2ccccc21 (stereo not drawn) [Hybrid 1]
concentration of hybrid 1 in supernatant at 24 h (uRBC hematocrit 2.5%, start 500 nM, HPLC): 256 nM | Maximum rate of reduction of drug concentration between 10 min and 24 h, HPLC (uRBC supernatants, slopes of linear regression fits, HPLC): 56.4% | Maximum rate of reduction of drug concentration between 10 min and 24 h, fluorescence microplate reader (uRBC supernatants, slopes of linear regression fits, fluorescence): 65.4%
